Results as given in PubChem BioAssay AID256 (DTP/NCI, 2004).
Several values for one entry are separate records, joined by “and”; a condition that tells them apart may be missing. Identical values can stand only once. Toxic doses and inconclusive results are not listed. Rule for the calls: active = survival T/C of 150% or more; inactive = T/C below 125% in these data.

Test system: CD2F1 mice, L1210 leukemia ip, survival T/C
Experiment: NCI In Vivo Anticancer Drug Screen. Data for tumor model L1210 Leukemia (intraperitoneal) in CD2F1 (CDF1) mice
Details: higher = longer survival
Method: The antitumor activity of compounds was measured in mice bearing transplantable tumors. Survival or tumor size were measured and the results are expressed as the measurement made in the treated group (T) divided by the measurement made in the vehicle treated control group (C). The tumor model used in this assay is L1210 Leukemia (intraperitoneal) in CD2F1 (CDF1) mice

[1] = endpoint: mean survival time, dose: 100.0 mg/kg/injection, schedule: Q01DX009 (ip), vehicle: saline with Tween-80
[2] = endpoint: mean survival time, dose: 100.0 mg/kg/injection, schedule: Q04DX003 (ip), vehicle: saline with Tween-80
[3] = endpoint: mean survival time, dose: 200.0 mg/kg/injection, schedule: Q01DX009 (ip), vehicle: saline with Tween-80
[4] = endpoint: mean survival time, dose: 200.0 mg/kg/injection, schedule: Q04DX003 (ip), vehicle: saline with Tween-80
[5] = endpoint: mean survival time, dose: 400.0 mg/kg/injection, schedule: Q04DX003 (ip), vehicle: saline with Tween-80
[6] = endpoint: mean survival time, dose: 100.0 mg/kg/injection, schedule: Q01DX001 (ip), vehicle: saline
[7] = endpoint: mean survival time, dose: 200.0 mg/kg/injection, schedule: Q01DX001 (ip), vehicle: saline
[8] = endpoint: mean survival time, dose: 100.0 mg/kg/injection, schedule: Q04DX002 (ip), vehicle: saline with Tween-80
[9] = endpoint: mean survival time, dose: 200.0 mg/kg/injection, schedule: Q04DX002 (ip), vehicle: saline with Tween-80
[10] = endpoint: mean survival time, dose: 400.0 mg/kg/injection, schedule: Q04DX002 (ip), vehicle: saline with Tween-80
[11] = endpoint: mean survival time, dose: 100.0 mg/kg/injection, schedule: Q01DX001 (ip), vehicle: saline with Tween-80
[12] = endpoint: mean survival time, dose: 400.0 mg/kg/injection, schedule: Q01DX001 (ip), vehicle: saline with Tween-80
[13] = endpoint: mean survival time, dose: 400.0 mg/kg/injection, schedule: Q01DX009 (ip), vehicle: saline with Tween-80
[14] = endpoint: mean survival time, dose: 400.0 mg/kg/injection, schedule: Q01DX001 (ip), vehicle: saline

Measured: T/C

COc1ccc(/C=N\N=C\c2ccc(OC)c(OC)c2)cc1OC
inactive: endpoint: mean survival time, dose: 100.0 mg/kg/injection, schedule: Q04DX003 (ip), vehicle: saline 105 % of control | endpoint: mean survival time, dose: 200.0 mg/kg/injection, schedule: Q04DX003 (ip), vehicle: saline 100 % of control | endpoint: mean survival time, dose: 400.0 mg/kg/injection, schedule: Q04DX003 (ip), vehicle: saline 94 % of control

O=C(OC1C=CC2CCC1C2)c1ccc([N+](=O)[O-])cc1 (centres undefined)
inactive: endpoint: mean survival time, dose: 50.0 mg/kg/injection, schedule: Q01DX009 (ip), vehicle: saline with Tween-80 98 % of control | [1] 94 % of control | [2] 87 % of control | [3] 93 % of control | [4] 87 % of control

CNc1ccc(O)cc1
inactive: endpoint: mean survival time, dose: 5.0 mg/kg/injection, schedule: Q01DX009 (ip), vehicle: saline sonified 101 % of control | endpoint: mean survival time, dose: 5.0 mg/kg/injection, schedule: Q04DX003 (ip), vehicle: saline 91 % of control | endpoint: mean survival time, dose: 10.0 mg/kg/injection, schedule: Q01DX009 (ip), vehicle: saline sonified 103 % of control | endpoint: mean survival time, dose: 10.0 mg/kg/injection, schedule: Q04DX003 (ip), vehicle: saline 97 % of control | endpoint: mean survival time, dose: 20.0 mg/kg/injection, schedule: Q01DX009 (ip), vehicle: saline sonified 104 % of control | endpoint: mean survival time, dose: 20.0 mg/kg/injection, schedule: Q04DX003 (ip), vehicle: saline 101 % of control

Cc1c(Cl)cccc1NC(=O)COc1ccc(Cl)cc1Cl
inactive: [2] 94 % of control | [4] 98 % of control | [5] 96 % of control

CC1(C)N=C(N)N=C(N)N1c1ccc(CCCCc2ccc(Cl)c(S(=O)(=O)F)c2)c(Cl)c1
inactive: endpoint: mean survival time, dose: 2.4 mg/kg/injection, schedule: Q01DX009 (ip), vehicle: saline with Tween-80 101 % of control | endpoint: mean survival time, dose: 3.6 mg/kg/injection, schedule: Q01DX009 (ip), vehicle: saline with Tween-80 95 % of control | endpoint: mean survival time, dose: 5.4 mg/kg/injection, schedule: Q01DX009 (ip), vehicle: saline with Tween-80 104 % of control | endpoint: mean survival time, dose: 8.0 mg/kg/injection, schedule: Q01DX009 (ip), vehicle: saline with Tween-80 106 % of control | endpoint: mean survival time, dose: 12.0 mg/kg/injection, schedule: Q01DX009 (ip), vehicle: saline with Tween-80 108 % of control | endpoint: mean survival time, dose: 18.0 mg/kg/injection, schedule: Q01DX009 (ip), vehicle: saline with Tween-80 117 % of control | endpoint: mean survival time, dose: 100.0 mg/kg/injection, schedule: Q04DX003 (ip), vehicle: saline sonified 90 % of control

CN(C)C1CCCC(OC(=O)c2ccccc2)C1 (centres undefined)
inactive: endpoint: mean survival time, dose: 25.0 mg/kg/injection, schedule: Q04DX002 (ip), vehicle: saline 97 % of control | endpoint: mean survival time, dose: 50.0 mg/kg/injection, schedule: Q04DX002 (ip), vehicle: saline 105 % of control | [6] 101 % of control | endpoint: mean survival time, dose: 100.0 mg/kg/injection, schedule: Q04DX002 (ip), vehicle: saline 94 % of control | [7] 100 % of control

O=C(O)C(Br)CC(Br)C(=O)O (centres undefined)
inactive: endpoint: mean survival time, dose: 50.0 mg/kg/injection, schedule: Q01DX009 (ip), vehicle: saline 93 % of control | endpoint: mean survival time, dose: 100.0 mg/kg/injection, schedule: Q01DX009 (ip), vehicle: saline 93 % of control

Fc1ccc2ccnnc2c1
inactive: endpoint: mean survival time, dose: 100.0 mg/kg/injection, schedule: Q01DX001 (ip), vehicle: other 103 % of control | endpoint: mean survival time, dose: 200.0 mg/kg/injection, schedule: Q01DX001 (ip), vehicle: other 95 % of control

CC(C)[Si]1(C(C)C)OCC2OC(c3cn(C)c(=O)n(C)c3=O)C(OC(=S)n3ccnc3)C2O[Si](C(C)C)(C(C)C)O1 (centres undefined)
inactive: endpoint: median survival time, dose: 12.5 mg/kg/injection, schedule: Q01DX005 (ip), vehicle: distilled water + Tween-80 98 % of control | endpoint: median survival time, dose: 25.0 mg/kg/injection, schedule: Q01DX005 (ip), vehicle: distilled water + Tween-80 98 % of control | endpoint: median survival time, dose: 50.0 mg/kg/injection, schedule: Q01DX005 (ip), vehicle: distilled water + Tween-80 92 % of control | endpoint: median survival time, dose: 100.0 mg/kg/injection, schedule: Q01DX005 (ip), vehicle: distilled water + Tween-80 92 % of control | endpoint: median survival time, dose: 200.0 mg/kg/injection, schedule: Q01DX005 (ip), vehicle: distilled water + Tween-80 92 % of control

COc1cccc2c1C(=O)c1c(O)c3c(c(O)c1C2=O)C[C@@](O)(/C(C)=N\O)C[C@@H]3OC1CC(N)C(O)C(C)O1 (some centres undefined)
inactive: endpoint: mean survival time, dose: 3.13 mg/kg/injection, schedule: Q01DX009 (ip), vehicle: water 108 % of control | endpoint: mean survival time, dose: 6.25 mg/kg/injection, schedule: Q01DX009 (ip), vehicle: water 112 % of control | endpoint: mean survival time, dose: 25.0 mg/kg/injection, schedule: Q01DX009 (ip), vehicle: water 98 % of control

Cc1ccc(NC(=O)/C=C/c2ccccc2)c(C)c1
inactive: [8] 94 % of control | [9] 94 % of control | [10] 94 % of control

CCOC(=O)c1ccc(NC(=O)N2CCC(CCCc3ccccc3)CC2)cc1
inactive: endpoint: mean survival time, dose: 50.0 mg/kg/injection, schedule: Q01DX001 (ip), vehicle: saline with Tween-80 100 % of control | [11] 88 % of control and 98 % of control | [1] 87 % of control and 91 % of control | [8] 91 % of control and 95 % of control | [2] 98 % of control | [3] 87 % of control and 93 % of control | [9] 91 % of control | [4] 87 % of control | [12] 88 % of control and 94 % of control | [13] 93 % of control | [10] 90 % of control | [5] 90 % of control

O=C1C=CC(=O)C(c2cn(C3CC(O)C(CO)O3)c(=O)[nH]c2=O)=C1 (centres undefined)
inactive: endpoint: median survival time, dose: 12.5 mg/kg/injection, schedule: Q01DX005 (ip), vehicle: saline with Tween-80 111 % of control | endpoint: median survival time, dose: 25.0 mg/kg/injection, schedule: Q01DX005 (ip), vehicle: saline with Tween-80 111 % of control | endpoint: median survival time, dose: 50.0 mg/kg/injection, schedule: Q01DX005 (ip), vehicle: saline with Tween-80 108 % of control | endpoint: median survival time, dose: 100.0 mg/kg/injection, schedule: Q01DX005 (ip), vehicle: saline with Tween-80 121 % of control | endpoint: median survival time, dose: 200.0 mg/kg/injection, schedule: Q01DX005 (ip), vehicle: saline with Tween-80 105 % of control

O=C(Nc1ccc(NC(=O)c2ccccc2)c(Sc2ccccc2)c1Sc1ccccc1)c1ccccc1
inactive: [11] 89 % of control | endpoint: mean survival time, dose: 200.0 mg/kg/injection, schedule: Q01DX001 (ip), vehicle: saline with Tween-80 89 % of control | [12] 86 % of control

COC(=O)c1cc([N+](=O)[O-])c(Sc2ncnc3nc[nH]c23)c([N+](=O)[O-])c1
inactive: endpoint: mean survival time, dose: 11.0 mg/kg/injection, schedule: Q01DX005 (ip), vehicle: other 103 % of control | endpoint: mean survival time, dose: 12.5 mg/kg/injection, schedule: Q01DX005 (ip), vehicle: other 110 % of control | endpoint: mean survival time, dose: 16.5 mg/kg/injection, schedule: Q01DX005 (ip), vehicle: other 124 % of control | endpoint: mean survival time, dose: 25.0 mg/kg/injection, schedule: Q01DX005 (ip), vehicle: other 95 % of control | endpoint: mean survival time, dose: 50.0 mg/kg/injection, schedule: Q01DX005 (ip), vehicle: other 115 % of control

Cc1cccc(Cl)c1OCC1CO1 (centres undefined)
inactive: [6] 110 % of control | [7] 110 % of control | [14] 110 % of control

CN1CC2(c3ccccc3)CN(C)CC(c3ccccc3)(C1)C2=O
inactive: endpoint: mean survival time, dose: 6.25 mg/kg/injection, schedule: Q01DX009 (ip), vehicle: saline with Tween-80 98 % of control | endpoint: mean survival time, dose: 6.25 mg/kg/injection, schedule: Q04DX003 (ip), vehicle: saline with Tween-80 98 % of control | endpoint: mean survival time, dose: 12.5 mg/kg/injection, schedule: Q01DX009 (ip), vehicle: saline with Tween-80 95 % of control | endpoint: mean survival time, dose: 12.5 mg/kg/injection, schedule: Q04DX003 (ip), vehicle: saline with Tween-80 98 % of control | endpoint: mean survival time, dose: 25.0 mg/kg/injection, schedule: Q01DX009 (ip), vehicle: saline with Tween-80 103 % of control | endpoint: mean survival time, dose: 25.0 mg/kg/injection, schedule: Q04DX003 (ip), vehicle: saline with Tween-80 92 % of control

Cc1ccc(C(=O)CCCCl)c(C)c1
inactive: [1] 111 % of control | [3] 104 % of control | [13] 104 % of control

O=[N+]([O-])c1ccc(S(=O)(=O)O)cc1
inactive: [6] 95 % of control | [7] 105 % of control | [14] 100 % of control
